Measured values: ChEMBL document CHEMBL4390694, “Benzofuran-isatin hybrids tethered via different length alkyl linkers and their in vitro anti-mycobacterial activities” (Bioorg Med Chem, 2019)
≈ marks a conversion by molar mass, not a printed value.

Tested on: Mycobacterium tuberculosis
Assay: Antimycobacterial activity against multidrug-resistant Mycobacterium tuberculosis assessed as complete inhibition of bacterial growth incubated for 7 days by rapid direct susceptibility test
Assay type: functional
Conditions: 168 h

Structure (SMILES) | MIC [µg/mL]
CCOC(=O)c1c(-c2ccc(F)cc2)oc2ccc(OCCCCCCN3C(=O)C(=O)c4cc(F)ccc43)cc12 | 0.25 (≈ 0.457 µM)
CNC(=O)c1c(-c2ccc(O)cc2)oc2ccc(O)c(CN3CCCCC3)c12 | < 0.06
CCOC(=O)c1c(-c2ccc(OC)cc2)oc2ccc(OCCCCCN3C(=O)C(=O)c4cc(F)ccc43)cc12 | 0.25 (≈ 0.458 µM)
CCOC(=O)c1c(-c2ccc(F)cc2)oc2ccc(OCCCCCN3C(=O)C(=O)c4cc(OC)ccc43)cc12 | 1 (≈ 1.83 µM)
CCOC(=O)c1c(-c2ccccc2)oc2ccc(OCCCN3C(=O)C(=O)c4cc(OC)ccc43)cc12 | 0.25 (≈ 0.5 µM)
CCOC(=O)c1c(-c2ccc(OC)cc2)oc2ccc(OCCCN3C(=O)C(=O)c4cc(F)ccc43)cc12 | 0.25 (≈ 0.483 µM)
CCOC(=O)c1c(-c2ccc(OC)cc2)oc2ccc(OCCCN3C(=O)C(=O)c4ccccc43)cc12 | 1 (≈ 2 µM)
CCOC(=O)c1c(-c2ccc(F)cc2)oc2ccc(OCCCN3C(=O)C(=O)c4ccccc43)cc12 | 1 (≈ 2.05 µM)
CCOC(=O)c1c(-c2ccc(OC)cc2)oc2ccc(OCCCCN3C(=O)C(=O)c4cc(OC)ccc43)cc12 | 4 (≈ 7.36 µM)
CCOC(=O)c1c(-c2ccc(OC)cc2)oc2ccc(OCCCCCCN3C(=O)C(=O)c4ccccc43)cc12 | 0.125 (≈ 0.231 µM)
CCOC(=O)c1c(-c2ccc(OC)cc2)oc2ccc(OCCCCCCN3C(=O)C(=O)c4cc(F)ccc43)cc12 | 0.125 (≈ 0.223 µM)
CCOC(=O)c1c(-c2ccc(OC)cc2)oc2ccc(OCCCCN3C(=O)C(=O)c4ccccc43)cc12 | 1 (≈ 1.95 µM)
CCOC(=O)c1c(-c2ccc(F)cc2)oc2ccc(OCCCN3C(=O)C(=O)c4cc(F)ccc43)cc12 | 1 (≈ 1.98 µM)
CCOC(=O)c1c(-c2ccc(F)cc2)oc2ccc(OCCCN3C(=O)C(=O)c4cc(OC)ccc43)cc12 | 2 (≈ 3.86 µM)
NNC(=O)c1ccncc1 [ISONIAZID] | > 128
CO[C@H]1/C=C/O[C@@]2(C)Oc3c(C)c(O)c4c(O)c(c(/C=N/N5CCN(C)CC5)c(O)c4c3C2=O)NC(=O)/C(C)=C\C=C\[C@H](C)[C@H](O)[C@@H](C)[C@@H](O)[C@@H](C)[C@H](OC(C)=O)[C@@H]1C [RIFAMPIN] | 64 (≈ 77.8 µM)
